Measurements from ChEMBL document CHEMBL1153077, “Highly tractable, sub-nanomolar non-steroidal glucocorticoid receptor agonists” (Bioorg Med Chem Lett, 2009).

What was measured:
[1] = Selectivity ratio of pIC50 for androgen receptor to pIC50 for human glucocorticoid receptor
[2] = Selectivity ratio of pIC50 for progesterone receptor to pIC50 for human glucocorticoid receptor
[3] = Selectivity ratio of pIC50 for estrogen receptor to pIC50 for human glucocorticoid receptor
Glucocorticoid receptor = biological target: T1, Glucocorticoid receptor (Homo sapiens, UniProt P04150)
T1 sequence (P04150 whole entry): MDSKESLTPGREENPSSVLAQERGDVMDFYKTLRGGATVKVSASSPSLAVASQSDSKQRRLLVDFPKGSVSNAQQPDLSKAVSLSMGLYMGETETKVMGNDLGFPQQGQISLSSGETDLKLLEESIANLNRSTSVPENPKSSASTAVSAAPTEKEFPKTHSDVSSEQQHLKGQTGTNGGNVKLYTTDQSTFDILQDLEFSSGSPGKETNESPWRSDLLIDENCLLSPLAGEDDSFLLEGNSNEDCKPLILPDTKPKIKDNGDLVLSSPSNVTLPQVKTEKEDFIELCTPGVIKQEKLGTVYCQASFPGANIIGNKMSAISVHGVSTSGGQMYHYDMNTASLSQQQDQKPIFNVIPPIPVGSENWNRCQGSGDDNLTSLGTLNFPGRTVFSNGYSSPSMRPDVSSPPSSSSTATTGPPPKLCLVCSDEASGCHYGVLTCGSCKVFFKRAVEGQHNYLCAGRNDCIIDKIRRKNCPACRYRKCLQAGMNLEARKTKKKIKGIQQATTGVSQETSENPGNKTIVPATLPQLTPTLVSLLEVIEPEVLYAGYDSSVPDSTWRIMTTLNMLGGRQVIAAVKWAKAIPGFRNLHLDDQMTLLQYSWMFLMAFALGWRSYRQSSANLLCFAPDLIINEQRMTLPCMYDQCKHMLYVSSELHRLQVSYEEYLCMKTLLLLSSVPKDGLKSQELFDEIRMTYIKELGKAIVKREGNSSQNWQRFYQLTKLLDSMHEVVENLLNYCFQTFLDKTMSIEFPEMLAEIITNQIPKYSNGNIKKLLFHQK
Description: Agonist activity at GR in human A549 cells by NF-kappaB transrepression assay

SMILES | Ratio pIC50 [1] | Ratio pIC50 [2] | Ratio pIC50 [3] | IC50 (Glucocorticoid receptor)
CCN(CC(O)(CNc1cccc2c1cnn2-c1ccc(F)cc1)C(F)(F)F)C(=O)c1ccccc1F (stereo in doubt; 32E2) [listing 1 of 2 here] | – | – | – | 31600 pM
CCN(CC(O)(CNc1cccc2c1cnn2-c1ccc(F)cc1)C(F)(F)F)C(=O)c1c(Cl)cccc1Cl (stereo in doubt; 38E2) [listing 1 of 2 here] | > 50 | > 50 | > 50 | –
CCN(CC(O)(CNc1nc(C)nc2c1cnn2-c1ccccc1)C(F)(F)F)S(=O)(=O)c1ccc(F)cc1 (racemic) | > 50 | > 50 | > 50 | 25100 pM
CCC1(CC(O)(CNC(=O)c2cnn(-c3ccccc3)c2N)C(F)(F)F)CCCc2ccccc21 (racemic) | – | – | – | 1580 pM
CCN(CC(O)(CNc1cccc2c1cnn2-c1ccc(F)cc1)C(F)(F)F)C(=O)c1c(Cl)cccc1Cl (stereo in doubt; 38E2) [listing 2 of 2 here] | – | – | – | 10000 pM
CCN(CC(O)(CNc1cccc2c1cnn2-c1ccc(F)cc1)C(F)(F)F)C(=O)c1c(Cl)cccc1Cl (racemic) [listing 1 of 2 here] | > 50 | > 50 | > 50 | –
CCN(CC(O)(CNc1cccc2c1cnn2-c1ccc(F)cc1)C(F)(F)F)C(=O)c1c(Cl)cccc1Cl (stereo in doubt; 38E1) [listing 1 of 2 here] | – | – | – | 79.4 pM
CCN(CC(O)(CNc1cccc2c1cnn2-c1ccc(F)cc1)C(F)(F)F)C(=O)c1c(Cl)cccc1Cl (stereo in doubt; 38E1) [listing 2 of 2 here] | > 50 | > 50 | > 50 | –
CCN(CC(O)(CNc1cccc2c1cnn2-c1ccc(F)cc1)C(F)(F)F)C(=O)c1c(C)cccc1C (racemic) | > 50 | > 50 | > 50 | 501 pM
CCN(CC(O)(CNc1cccc2c1cnn2-c1ccc(F)cc1)C(F)(F)F)C(=O)c1c(Cl)cccc1Cl (racemic) [listing 2 of 2 here] | – | – | – | 126 pM
CCN(CC(O)(CNc1cccc2c1cnn2-c1ccccc1)C(F)(F)F)S(=O)(=O)c1ccccc1 (racemic) | > 50 | > 50 | > 50 | 2510 pM
CCN(CC(O)(CNc1cccc2c1cnn2-c1ccc(F)cc1)C(F)(F)F)C(=O)c1c(F)cccc1F (racemic) | > 50 | > 50 | > 50 | 316 pM
CCN(CC(O)(CNc1cc(C)cc2c1cnn2-c1ccc(F)cc1)C(F)(F)F)C(=O)c1ccccc1F (racemic) | > 50 | > 50 | > 50 | 200 pM
CCN(CC(O)(CNC(=O)c1cnn(-c2ccccc2)c1N)C(F)(F)F)S(=O)(=O)c1ccc(F)cc1 (racemic) | > 50 | > 50 | > 50 | 31600 pM

Continued, values first:

Ratio pIC50 [1] | Ratio pIC50 [2] | Ratio pIC50 [3] | IC50 (Glucocorticoid receptor) | SMILES
> 50 | > 50 | > 50 | 251 pM | CCN(CC(O)(CNc1cccc2c1cnn2-c1ccc(F)cc1)C(F)(F)F)C(=O)c1ccccc1Cl (racemic)
> 50 | > 50 | > 50 | 7940 pM | CCN(CC(O)(CNc1cccc2c1cnn2-c1ccccc1)C(F)(F)F)S(=O)(=O)c1ccc(F)cc1 (racemic)
> 50 | > 50 | > 50 | 251 pM | CCN(CC(O)(CNc1cc(C)cc2c1cnn2-c1ccccc1)C(F)(F)F)C(=O)c1ccccc1F (racemic)
> 50 | > 50 | > 50 | 398 pM | CCN(CC(O)(CNc1cc(C)cc2c1cnn2-c1ccccc1)C(F)(F)F)C(=O)c1ccccc1 (racemic)
> 50 | > 50 | > 50 | 3160 pM | CCCN(CC(O)(CNc1cccc2c1cnn2-c1ccccc1)C(F)(F)F)C(=O)c1ccccc1 (racemic)
> 50 | > 50 | > 50 | 5010 pM | CN(CC(O)(CNc1cccc2c1cnn2-c1ccccc1)C(F)(F)F)C(=O)c1ccccc1 (racemic)
> 50 | > 50 | > 50 | – | CCN(CC(O)(CNc1cccc2c1cnn2-c1ccc(F)cc1)C(F)(F)F)C(=O)c1ccccc1F (racemic) [listing 1 of 2 here]
> 50 | > 50 | > 50 | 316 pM | CCN(CC(O)(CNc1cccc2c1cnn2-c1ccc(F)cc1)C(F)(F)F)C(=O)c1ccccc1C (racemic)
> 50 | > 50 | > 50 | – | CCN(CC(O)(CNc1cccc2c1cnn2-c1ccc(F)cc1)C(F)(F)F)C(=O)c1ccccc1F (stereo in doubt; 32E2) [listing 2 of 2 here]
– | – | – | 126 pM | CCN(CC(O)(CNc1cccc2c1cnn2-c1ccc(F)cc1)C(F)(F)F)C(=O)c1ccccc1F (stereo in doubt; 32E1) [listing 1 of 2 here]
> 50 | > 50 | > 50 | 794 pM | CCN(CC(O)(CNc1cccc2c1cnn2-c1ccc(F)cc1)C(F)(F)F)C(=O)c1ccccc1 (racemic)
> 50 | > 50 | > 50 | 316 pM | CCN(CC(O)(CNc1cccc2c1cnn2-c1ccccc1)C(F)(F)F)C(=O)c1ccccc1F (racemic)
> 50 | > 50 | > 50 | – | CCN(CC(O)(CNc1cccc2c1cnn2-c1ccc(F)cc1)C(F)(F)F)C(=O)c1ccccc1F (stereo in doubt; 32E1) [listing 2 of 2 here]
– | – | – | 200 pM | CCN(CC(O)(CNc1cccc2c1cnn2-c1ccc(F)cc1)C(F)(F)F)C(=O)c1ccccc1F (racemic) [listing 2 of 2 here]
> 50 | > 50 | > 50 | 794 pM | CCN(CC(O)(CNc1cccc2c1cnn2-c1ccccc1)C(F)(F)F)C(=O)c1ccccc1 (racemic)
> 50 | > 50 | > 50 | 398 pM | CCN(CC(O)(CNc1cc(C)cc2c1cnn2-c1ccc(F)cc1)C(F)(F)F)C(=O)c1ccccc1 (racemic)
